From patent US10736873B2, “Medical uses of N-(2-aminoethyl)-N-(4-benzyloxy)-3-methoxybenzyl)thiophene-2-formamide hydrochloride” (The Second Xiangya Hospital, Central South University, priority 2017, dated 2020)

How the values were obtained:
[1] = tested on: Scid-HepG2-subcutaneous tumor; assay: Scid-HepG2 subcutaneous tumor model in NOD/SCID nude mice; assay type: in vivo; details: for Relative volume of Scid-HepG2-subcutaneous tumor: 2 mg/kg i.p. 1 time/day
Method: (§1) Using the hepatoma cell line HepG2, 5×10^6 cells were injected into the right flank of each NOD/SCID nude mouse (10 in total) respectively. When the tumor grows to a volume of about 80 mm^3, the mice were randomly divided into control group and therapeutic intervention group, with 5 mice in each group. Therapeutic Intervention Group: M8-B hydrochloride was dissolved in DMSO to form an injectable medication, intraperitoneally injected, at a dose of 2 mg/kg (wherein 2 mg was the mass of M8-B hydrochloride), 1 time/day. Control Group: The blank solvent DMSO was intraperitoneally injected, at a dose of 2 mg/kg, 1 time/day. Tumor size was measured by volume=½×length×width^2, and the mice were sacrificed at week 10 to compare survival rate and tumor volume. The experimental results of this example are as follows: Tumor size was measured by volume=½×length×width^2, and mice were sacrificed at week 10 to compare survival rate and tumor volume. The experimental results of this example are as follows: In Table 1, DMSO represents the relative volume of Scid-HepG2-subcutaneous tumor in the control group of blank solvent, M8-B represents the relative volume of Scid-HepG2-subcutaneous tumor in the therapeutic intervention group, and P value represents the difference between the relative volumes of Scid-HepG2-subcutaneous tumors in the control group and therapeutic intervention group. The tumor size on the first day of administration is 100%.

[2] = tested on: Scid-Huh7-subcutaneous tumor; assay: Scid-Huh7 subcutaneous tumor model in NOD/SCID nude mice; assay type: in vivo; details: for Relative volume of Scid-Huh7-subcutaneous tumor: 2 mg/kg i.p. 1 time/day
Method: as §1, with “Huh7,” for “HepG2,”, “6” for “10 to compare survival rate and tumor volume. The experimental results of this example are as follows: Tumor size was measured by volume=½×length×width^2, and mice were sacrificed at week 10”, “2,” for “1,”, “Scid-Huh7-subcutaneous” for “Scid-HepG2-subcutaneous”

[3] = week 0, tumor size on first day of administration = 100%
[4] = week 1, first day of administration = 100%
[5] = week 2, first day of administration = 100%
[6] = week 3, first day of administration = 100%
[7] = week 4, first day of administration = 100%
[8] = week 5, first day of administration = 100%
[9] = week 6, first day of administration = 100%

SMILES: COc1cc(CN(CCN)C(=O)c2cccs2)ccc1OCc1ccccc1.Cl [M8B]
- changes of tumor volume in mice (HepG2 tumors) ([1]; versus DMSO control, results of table 1): significantly slower
- Relative volume of Scid-HepG2-subcutaneous tumor [1, 3]: 100.00%
- Relative volume of Scid-HepG2-subcutaneous tumor [1, 4]: 151.94%
- Relative volume of Scid-HepG2-subcutaneous tumor [1, 5]: 212.44%
- Relative volume of Scid-HepG2-subcutaneous tumor [1, 6]: 273.9%
- Relative volume of Scid-HepG2-subcutaneous tumor [1, 7]: 349.0%
- Relative volume of Scid-HepG2-subcutaneous tumor [1, 8]: 416.66%
- Relative volume of Scid-HepG2-subcutaneous tumor [1, 9]: 479.2%
- Relative volume of Scid-HepG2-subcutaneous tumor ([1]; week 7, first day of administration = 100%): 590.68%
- Relative volume of Scid-HepG2-subcutaneous tumor ([1]; week 8, first day of administration = 100%): 1108.50%
- Relative volume of Scid-HepG2-subcutaneous tumor ([1]; week 9, first day of administration = 100%): 700.92%
- Relative volume of Scid-HepG2-subcutaneous tumor ([1]; week 10, first day of administration = 100%): 734.87%
- changes of tumor volume in mice (HuH7 tumors) ([2]; versus DMSO control, results of table 2): significantly slower
- Relative volume of Scid-Huh7-subcutaneous tumor [2, 3]: 100.00%
- Relative volume of Scid-Huh7-subcutaneous tumor [2, 4]: 143.85%
- Relative volume of Scid-Huh7-subcutaneous tumor [2, 5]: 205.0%
- Relative volume of Scid-Huh7-subcutaneous tumor [2, 6]: 381.41%
- Relative volume of Scid-Huh7-subcutaneous tumor [2, 7]: 484.0%
- Relative volume of Scid-Huh7-subcutaneous tumor [2, 8]: 789.89%
- Relative volume of Scid-Huh7-subcutaneous tumor [2, 9]: 928.01%
